The values below come from patent US6369066B1, “Substituted 1,3-oxathiolanes with antiviral properties” (BioChem Pharma, Inc., priority 1990, dated 2002).

Values after ≈ are worked out from the molar mass of the structure shown. Where two headings read alike, the source gives them in different places.

Common to all, as to assay type: cell-based
The subject of one data set is HIV-1 IIIB. Briefly: IC50 in CBMCs with HIV-1 isolate IIIB. As to the method: (§1) In short, viruses (HTLV-IIIB) that had initially been grown on MT-4 cells were passaged onto phytohemaglutinin-prestimulated cord blood mononuclear cells (CBM). For subsequent analysis, samples of CBM (5×10^5 cells per mL) were pretreated with various concentrations of the different compounds for 4 h and were then inoculated with CBL-grown HIV-1 at a multiplicity of infection of 1.0 in the concentration of the compound used for the pretreatment. Fresh medium, including the appropriate concentration of the compound was added three times weekly, and fresh phytohemaglutinin-prestimulated CBM (5×10^5 cells per mL) were added at 2-day intervals. The calculation of IC50 was determined on the basis of RT levels in culture fluids as described in Gao et al., (1992), J. Virol. 66: 12-19.
(§2) Determination of IC50 (μM) in Different Mutated Isolates of HIV-1 in the Presence of Different Antiviral Compounds
(§3) The procedure is similar to the procedure used in the CBM assay, with the exception that constructed virus and construted mutated virus were used.

Data set [1] concerns HIV-1 HXB2D-65 K→R (ddC resistance mutation). Briefly: IC50 in CBMCs with constructed mutated virus HXB2D-65. Here is the method:
as §1, §2, §3
(§4) The constructed virus HXB2D-65 correspond to the ddC resistance mutation and the constructed virus HXB2D-184 correspond to the 3TC™ and FTC resistance mutation.

Another data set concerns HIV-1 HXB2D. Briefly: IC50 in CBMCs with constructed virus HXB2D. Here is the method: as §1, §2, §3, §4
For data set [2], the system named is HIV-1 HXB2D-184 M→V (3TC™ and FTC resistance mutation). Briefly: IC50 in CBMCs with constructed mutated virus HXB2D-184. As to the method: as §1, §2, §3, §4
The subject of a further data set is HIV-1 (HTLV-IIIB). Nature of the data set: CBM assay, IC50 from RT levels in culture fluids. To be noted: Human immunodeficiency virus 1. As to the method: Assays on cord blood mononuclear cells were done substantially as described in Gu et al., J. Virol. (1992), 66:7128-7135.
as §1

For a further data set, the system named is Jurkat. Nature of the data set: Cell culture inhibitory dose (CCID50) in Jurkat. To be noted: cell counting, trypan blue exclusion, 7 days post drug treatment. As to the method:
(§5) Evaluation of Cell Culture Inhibitory Dose (CCID50)
(§6) Cell growth was determined by cell counting and viability by trypan blue exclusion 7 days post drug treatment. CCID50 is expressed as the drug concentration which inhibits 50% of cell growth.

In another data set the test system is CBMCs. Briefly: Cell culture inhibitory dose (CCID50) in CBMCs. To be noted: cell counting, trypan blue exclusion, 7 days post drug treatment. As to the method: as §5, §6
Another data set relates to U937. Nature of the data set: Cell culture inhibitory dose (CCID50) in U937. As to conditions: cell counting, trypan blue exclusion, 7 days post drug treatment. As to the method:
as §5, §6

The next data set has as its system CEM. Nature of the data set: Cell culture inhibitory dose (CCID50) in CEM. As to conditions: cell counting, trypan blue exclusion, 7 days post drug treatment. As to the method: as §5, §6
The next data set has as its system MT-4. Nature of the data set: Cell culture inhibitory dose (CCID50) in MT-4. As to conditions: cell counting, trypan blue exclusion, 7 days post drug treatment. Here is the method:
as §5, §6

In a further data set the test system is H9. Briefly: Cell culture inhibitory dose (CCID50) in H9. To be noted: cell counting, trypan blue exclusion, 7 days post drug treatment. Here is the method:
as §5, §6

Another data set deals with HIV-1 strain RF. Nature of the data set: Formazan (MTT) assay on MT-4 cells, anti-HIV-1 antiviral activity. To be noted: Human immunodeficiency virus 1, MT4, 168 h, MT-4 cells infected with HIV-1 strain RF, 7 days, read-out: IC50 (50% anti-viral dose, ID 50%). As to the method: Formazan Assay on MT-4 and 3TC™-Resistant Cell Lines
(§7) Anti-HIV-1 antiviral activity was determined in MT-4 calls and MT-4 cells that have been made resistant to 3TC™. A suspension of cells (approximately 10^6 cells/ml) in RPMI 1640 growth medium was infected with HIV-1 strain RF at a M.O.I. of 10^−3 infectious units/cell. An uninfected cell suspension was prepared in parallel to evaluate drug-induced cytotoxicity. The two suspensions were incubated for 90 minutes at room temperature. Test compounds were serially diluted in 10-fold decrements from 100 μg/ml to 0.01 μg/ml (final concentrations in two 96 well microtitre plates. 20 μl of infected cell suspension were inoculated into each well of one of the plates (anti-viral), while 20 μl of uninfected cell suspension were added to each well of the second plate (cytotoxicity). The plates were then incubated for 7 days at 37° C. After incubation, 10 μl of 3-(4,5-dimethylthiazol-2-yl)-2,5-diphenyltetrazolium bromide (MTT) at 20 mg/ml was added to all wells and the plates incubated for a further 90 minutes at 37° C.
150 μl of 10% (v/v) alcoholic Triton X-100 was then added and the cells resuspended. After 15 minutes at room temperature, the plates were analyzed in a Multiskan MC reader at 405 nm. Conversion of yellow MMT to its formazan derivative is maximum in uninfected cells, and absent in untreated infected cells. The optical density values for the cytotoxicity controls and the antiviral test wells were graphically plotted and the dose of compounds required to inhibit the conversion of MMT to 50% of the untreated uninfected controls was calculated. In this way, both the 50% cytotoxic dose (CD 50%) and the 50% anti-viral dose (ID 50%) can be calculated.

Another data set deals with HTLV-IIIb. Nature of the data set: HIV-1 acutely infected cell lines, p24 antigen levels. As to conditions: p24 antigen at day 6; for ID50 CEM: CEM cells infected with HTLV-IIIb; for ID50 H9: H9 cells infected with HTLV-IIIb; for ID50 Jurkat: Jurkat cells infected with HTLV-IIIb; for ID50 MT-4: MT-4 cells infected with HTLV-IIIb; for ID50 U937: U937 cells infected with HTLV-IIIb. Here is the method:
Determination of IC50 ([…]) in HIV-1 Acutely Infected Cell Lines in the Presence of Differet Antiviral Compounds
Various cell lines were infected with HTLV-IIIb (TCID50=200) and then cultured with various concentrations of drug. IC50 was determined by measuring p24 antigen levels in the supernatant of cultures at day 6 of infection.

For another data set, the system named is MT-4 cells. Nature of the data set: Formazan (MTT) assay, drug-induced cytotoxicity in uninfected MT-4 cells. To be noted: human, 7 days. As to the method: as §7, with “A suspension of cells (approximately 10^6 cells/ml) in RPMI 1640 growth medium was infected with HIV-1 strain RF at a M.O.I. of 10^−3 infectious units/cell.” left out
150 μl of 10% (v/v) alcoholic Triton X-100 was then added and the cells resuspended. After 15 minutes at room temperature, the plates were analyzed in a Multiskan MC reader at 405 nm. […] The optical density values for the cytotoxicity controls and the antiviral test wells were graphically plotted and the dose of compounds required to inhibit the conversion of MMT to 50% of the untreated uninfected controls was calculated.

Data set [3] concerns 2.2.15 cells (Hep G2 cells transfected with human hepatitis B virus genomic DNA). Briefly: Cytotoxicity (CD50) reported with HBV assay. To be noted: HBV table. Here is the method: (§8) The method used for this test is described in detail in Korba et al., Antiviral research 15, 217-228 (1992) which is shortly described as follows: Hep G2 cells transfected with human hepatitis B virus genomic DNA (2.2.15 cells) were grown and maintained in RPMI-1640 culture medium containing %5 foetal bovine serum, 2 mM glutamine and 50 μg/ml gentamicin sulphate, and checked routinely for G418 resistance. Cultures of 2.2.15 cells were grown to confluence in 24 well tissue culture plates and maintained for 2 to 3 days in that condition prior to drug treatment.

The subject of data set [4] is cord blood mononuclear cells (CBM). Nature of the data set: Cytotoxicity (CD50) reported with CBM assay. As to the method: Assays on cord blood mononuclear cells were done substantially as described in Gu et al., J. Virol.
as §1, with “The calculation of IC50 was determined on the basis of RT levels in culture fluids as described in Gao et al., (1992), J. Virol.” left out

Another data set deals with human hepatitis B virus. Nature of the data set: Inhibition of human hepatitis B virus in 2.2.15 cells, extracellular HBV DNA. As to conditions: 10 day treatment. Here is the method: Inhibition of Human Hepatitis B Virus.
as §8
Drugs were dissolved in sterile water or sterile 50% DMSO in water at concentrations 100-fold higher than the higher test concentration. These solutions were diluted as needed in culture medium.
The culture medium on the confluent cells was changed 24 hours prior to exposure to test compounds. During the 10 day treatment, the culture medium was changed daily. After 10 days of the treatment, the culture medium was collected and frozen at −70° C. for HBV DNA analysis. […]
A purified 3.2 kb EcoR1 HBV DNA fragment was labeled with [^32p]dCTP by nick translation and used as a probe to detect HBV DNA on the dot-blot by DNA hybridization. After washing, the hybridized blot was dried and ^32p was quantified using an Ambis beta scanner.

[5] abbreviates: Human immunodeficiency virus 1, read-out: IC50 HXB2D-65 K→R.
[6] abbreviates: Human immunodeficiency virus 1, read-out: IC50 HXB2D.
The mark [7] stands for this setting: Human immunodeficiency virus 1, read-out: IC50 HXB2D-184 M→V.

`Nc1ccn([C@@H]2CS[C@H](CO)O2)c(=O)n1` [3TC ™, reference compound]: the concentration for half-maximal inhibition (IC50) (in general, the midpoint of a concentration-inhibition curve) with HIV-1 IIIB came out at 10 nM; in [1] (CBMCs, ddC resistance mutation, read-out: IC50 HXB2D-65 K→R) it was 125 nM; in the data set with HIV-1 HXB2D (CBMCs, constructed virus HXB2D, read-out: IC50 HXB2D), 80 nM; in [2] (CBMCs, 3TC™ and FTC resistance mutation, read-out: IC50 HXB2D-184 M→V) it was 42500 nM.

Turning to `Cc1cn([C@H]2C[C@H](N=[N+]=[N-])[C@@H](CO)O2)c(=O)[nH]c1=O` [AZT, 3′-azido-3′-deoxythymidine, reference compound], the IC50 was 2 nM in the data set with HIV-1 IIIB (Human immunodeficiency virus 1); < 0.002 µg/mL in the data set on HIV-1 (HTLV-IIIB); 1 nM in data set [1] (setting [5]); 2 nM with HIV-1 HXB2D (setting [6]); 0.01 µg/mL (≈ 0.0374 µM) in the data set on HIV-1 strain RF; 1 nM in data set [2] (setting [7]). Moreover, the “CCID50 Jurkat” value with Jurkat is >500 µM. Also, the “CCID50 CBMCs” value in the data set on CBMCs worked out at 45 µM. For the same compound, in the data set on U937, the “CCID50 U937” value was determined as 110 µM. For the same compound, in the data set on CEM, the “CCID50 CEM” value came to 500 µM. The “CCID50 MT-4” value in the data set with MT-4 worked out at 110 µM. For the same compound, the “CCID50 H9” value in the data set on H9 was found to be 200 µM. In addition, the “ID50 CEM” value with HTLV-IIIb came out at 0.01 µg/mL (≈ 0.0374 µM). Also, in the data set with HTLV-IIIb, the “ID50 H9” value is 0.07 µg/mL (≈ 0.262 µM). The “ID50 Jurkat” value in the data set with HTLV-IIIb is 0.01 µg/mL (≈ 0.0374 µM). For the same compound, in the data set with HTLV-IIIb, the “ID50 MT-4” value came out at 0.005 µg/mL (≈ 0.0187 µM). Besides, the “ID50 U937” value in the data set with HTLV-IIIb amounted to 0.04 µg/mL (≈ 0.15 µM).

As to `Nc1ccn(C2COC(CO)S2)c(=O)n1` (stereo not drawn) [BCH-270, Cis- and Trans-2-hydroxymethyl-4-(cytosin-1′-yl)-1,3-oxathiolane], the “CD50 (50% cytotoxic dose)” value in the data set on MT-4 cells is >100 µg/mL. In addition, the IC50 was determined as 0.03 µg/mL (≈ 0.131 µM) in the data set on HIV-1 (HTLV-IIIB) and 4 µg/mL (≈ 17.4 µM) in the data set on HIV-1 strain RF. In addition, the “CD50 (HBV)” value in [3] is >10 µg/mL. In addition, the CD50 in data set [4] is >23 µg/mL. Also, the “ID50 (HBV)” value in the data set on human hepatitis B virus came out at 7.5 µg/mL (≈ 32.7 µM).

As for `Nc1ccn([C@H]2CO[C@@H](CO)S2)c(=O)n1` [Compound #1, 2R-hydroxymethyl-4R-(cytosin-1′-yl)-1,3-oxathiolane], the IC50 in the data set on HIV-1 IIIB (Human immunodeficiency virus 1) was 220 nM; in the data set with HIV-1 (HTLV-IIIB), 0.05 to 1.22 µg/mL (≈ 0.218 to 5.32 µM); in [1] (setting [5]), 2500 nM; in the data set with HIV-1 HXB2D (setting [6]), 1000 nM; in the data set with HIV-1 strain RF, 13 µg/mL (≈ 56.7 µM); in data set [2] (setting [7]), 530 nM. Besides, the “CD50 (50% cytotoxic dose)” value with MT-4 cells was >100 µg/mL. Further, in the data set on Jurkat, the “CCID50 Jurkat” value came out at 450 µM. The “CCID50 CBMCs” value with CBMCs is >500 µM. In addition, the “CCID50 U937” value in the data set with U937 was >500 µM. Moreover, the “CCID50 CEM” value in the data set on CEM was >500 µM. The CD50 in data set [4] is >23 µg/mL. In the data set with MT-4, the “CCID50 MT-4” value was >500 µM. The “CCID50 H9” value with H9 is >500 µM. The “ID50 CEM” value in the data set with HTLV-IIIb came to 0.2 µg/mL (≈ 0.872 µM). Also, in the data set with HTLV-IIIb, the “ID50 H9” value was 0.3 µg/mL (≈ 1.31 µM). The “ID50 Jurkat” value with HTLV-IIIb is 3.0 µg/mL (≈ 13.1 µM). Also, the “ID50 MT-4” value in the data set with HTLV-IIIb is 2.8 µg/mL (≈ 12.2 µM). Moreover, the “ID50 U937” value in the data set with HTLV-IIIb came out at 0.4 µg/mL (≈ 1.74 µM).
